Molecular target: HPK1 (Homo sapiens (Human), UniProt Q92918)
Assay: HPK1 biochemical enzyme assay (microfluidic mobility shift assay)
Conditions: 1.5 nM HPK1, ATP 1 mM final, 30 min preincubation, 60 min at RT, Caliper EZ Reader; read-out: HPK1 1000UMATP caliper IC50
Method in brief: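 Ten-point compound titrations (top 3 μM final) preincubated 30 min with HPK1 and substrate, then reaction started with 1 mM ATP and 1 μM substrate, 5 mM MgCl2. After 60 min at RT, reaction terminated and product measured by microfluidic mobility shift.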

Chain of HPK1 (Q92918 whole entry): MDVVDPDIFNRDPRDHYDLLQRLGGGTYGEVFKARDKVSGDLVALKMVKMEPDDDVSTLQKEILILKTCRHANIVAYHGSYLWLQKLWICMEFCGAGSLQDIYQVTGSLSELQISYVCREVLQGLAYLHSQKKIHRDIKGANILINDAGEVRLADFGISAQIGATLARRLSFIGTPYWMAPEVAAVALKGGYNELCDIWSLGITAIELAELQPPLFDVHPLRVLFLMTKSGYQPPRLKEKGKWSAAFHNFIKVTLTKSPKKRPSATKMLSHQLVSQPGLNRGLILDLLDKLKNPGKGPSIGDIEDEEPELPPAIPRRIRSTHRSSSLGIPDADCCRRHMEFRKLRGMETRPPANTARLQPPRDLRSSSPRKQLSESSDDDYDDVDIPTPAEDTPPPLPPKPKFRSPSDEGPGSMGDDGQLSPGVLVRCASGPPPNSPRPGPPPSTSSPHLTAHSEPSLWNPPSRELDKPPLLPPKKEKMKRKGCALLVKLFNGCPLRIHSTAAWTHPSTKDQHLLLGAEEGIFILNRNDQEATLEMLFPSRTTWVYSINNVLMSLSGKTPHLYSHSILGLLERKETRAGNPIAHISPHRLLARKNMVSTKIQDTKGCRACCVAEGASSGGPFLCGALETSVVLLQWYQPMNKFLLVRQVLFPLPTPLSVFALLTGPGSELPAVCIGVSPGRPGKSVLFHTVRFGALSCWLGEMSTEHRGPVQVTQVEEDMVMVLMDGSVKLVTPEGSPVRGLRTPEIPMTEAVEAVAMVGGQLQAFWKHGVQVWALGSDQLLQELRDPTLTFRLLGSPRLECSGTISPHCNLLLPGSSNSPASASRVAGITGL

| Structure (SMILES) | IC50 [nM] |
| --- | --- |
| Cn1ccc2c(-c3ccc(Nc4ccc(N5CCC(O)CC5)cn4)c4c3CNC4=O)ncnc21 [I-144, 7-[[5-(4-hydroxy-1-piperidyl)-2-pyridyl]amino]-4-(7-methylpyrrolo [2,3-d]pyrimidin-4-yl)isoindolin-1-one] | < 100 |
| Cn1ccc2c(-c3ncc(Nc4ccc(N5CCC[C@@H](O)C5)cn4)c4c3CNC4=O)ccnc21 [I-178, 7-[[5-[(3R)-3-hydroxy-1-piperidyl]-2-pyridyl]amino]-4-(1-methylpyrrolo [2,3-b]pyridin-4-yl)-2,3-dihydropyrrolo [3,4-c]pyridin-1-one] | < 100 |
| COc1cccc2c(-c3ncc(Nc4ccc(N5CCN(C)CC5)cn4)c4c3CNC4=O)c[nH]c12 [I-7, 4-(7-methoxy-1H-indol-3-yl-)-7-[[5-(4-methylpiperazin-1-yl)-2-pyridyl]amino]-2,3-dihydropyrrolo [3,4-c]pyridin-1-one] | 100 to 1000 |
| Cn1ccc2c(-c3ccc(Nc4cccc(N5CCC(O)CC5)n4)c4c3CNC4=O)ccnc21 [I-147, 7-[[6-(4-hydroxy-1-piperidyl)-2-pyridyl]amino]-4-(1-methylpyrrolo [2,3-b]pyridin-4-yl)isoindolin-1-one] | 100 to 1000 |
| O=C1NCc2c(-c3cnc4c(C(F)(F)F)cccn34)ccc(Nc3ccc(N4CCC(O)CC4)cn3)c21 [I-149] | < 100 |
| Cn1ccc2c(-c3ccc(Nc4ccc(C5CCOC5)cn4)c4c3CNC4=O)ccnc21 (stereo not drawn) [I-108, 4-(1-methylpyrrolo [2,3-b]pyridin-4-yl)-7-[(5-THF-3-yl-2-pyridyl)amino] isoindolin-1-one] | < 100 |
| Cn1ccc2c(-c3ncc(Nc4ccc(N5CCC[C@H](C(C)(C)O)C5)cn4)c4c3CNC4=O)ccnc21 [I-211, 7-[[5-[(3S)-3-(1-hydroxy-1-methyl-ethyl)-1-piperidyl]-2-pyridyl]-amino]-4-(1-methylpyrrolo [2,3-b]pyridin-4-yl)-2,3-dihydropyrrolo [3,4-c]pyridin-1-one] | < 100 |
| Cn1ccc2c(-c3ccc(Nc4ccc(N5CCC(O)CC5)cn4)c4c3CNC4=O)ccnc21 [I-75, 7-[[5-(4-hydroxy-1-piperidyl)-2-pyridyl]amino]-4-(1-methylpyrrolo [2,3-b]pyridin-4-yl)isoindolin-1-one] | < 100 |
| CN1CCN(c2ccc(Nc3ccc(-c4cn(C)c5ncccc45)c4c3C(=O)NC4)nc2)CC1 [I-22, 7-[[5-(4-methylpiperazin-1-yl)-2-pyridyl]amino]-4-(1-methylpyrrolo [2,3-b]pyridin-3-yl)-isoindolin-1-one] | 100 to 1000 |
| N#Cc1ccn2c(-c3ncc(Nc4ccc(N5CCOCC5)cn4)c4c3CNC4=O)cnc2c1 [I-189, 3-[7-[(5-morpholino-2-pyridyl)-amino]-1-oxo-2,3-dihydropyrrolo [3,4-c]pyridin-4-yl]imidazo[1,2-a]pyridine-7-carbonitrile] | 100 to 1000 |
| O=C1NCc2c(-c3cnc4cnccn34)ccc(Nc3ccc(N4[C@@H]5CC[C@H]4C[C@@H](O)C5)cn3)c21 [I-304, 7-((5-((1R,3r,5S)-3-hydroxy-8-azabicyclo [3,2.1]octan-8-yl)pyridin-2-yl)amino)-4-(imidazo[1,2-a]pyrazin-3-yl)isoindolin-1-one] | < 100 |

More lines, now with the values ahead:

| IC50 [nM] | Structure (SMILES) |
| --- | --- |
| < 100 | COC1CN(Cc2nc(Nc3ccc(-c4cnc5cc(F)ccn45)c4c3C(=O)NC4)ccc2[C@@H]2CCOC2)C1 [I-549, (S)-4-(7-fluoroimidazo [1,2-a]pyridin-3-yl)-7-((6-((3-methoxyaze-tidin-1-yl)methyl)-5-(tetrahydrofuran-3-yl)pyridin-2-yl)amino)isoin-dolin-1-one] |
| < 100 | Cn1ccc2c(-c3ncc(Nc4ccc(N5CC[C@@H](F)[C@H](O)C5)cn4)c4c3CNC4=O)ccnc21 [I-416, 7-((5-((3R,4R)-4-fluoro-3-hydroxy-piperidin-1-yl)pyridin-2-yl)amino)-4-(1-methyl-1H-pyrrolo[2,3-b]pyridin-4-yl)-2,3-dihydro-1H-pyrrolo[3,4-c]pyridin-1-one] |
| < 100 | CN1CCC[C@@H](c2cccc(Nc3cnc(-c4ccnc5c4ccn5C)c4c3C(=O)NC4)n2)C1 [I-420, (R]-4-(1-methyl-1H-pyrrolo[2,3-b]pyridin-4-yl)-7-((6-(1-methylpiperidin-3-yl)pyridin-2-yl)amino)-2.3-dihydro-1H-pyrrolo[3,4-c]pyridin-1-one] |
| 100 to 1000 | Cc1cc(Nc2cnc(-c3ccnc4c3ccn4C)c3c2C(=O)NC3)nc(N2CC[C@@H]3CNC[C@@H]32)c1 [I-642, 7-((6-((3aR,6aR)-hcxahydropyrr-olo[3,4-b]pyrrol-1(2H)-yl)-4-methylpyridin-2-yl)amino)-4-(1-methyl-1H-pyrrolo[2,3-b]pyridin-4-yl)-2,3-dihydro-1H-pyrrolo[3,4-c]pyridin-1-one] |
| < 100 | CC(C)([C@@H]1CN(c2ccc(Nc3ccc(-c4cnc5cc(F)ccn45)c4c3C(=O)NC4)nc2)CCO1)N1CC(O)C1 [I-697, (S)-4-(7-fluoroimidazo [1,2-a]pyridin-3-yl)-7-((5-(2-(2-(3-hydroxyazetidin-1-yl)propan-2-yl)morpholino)pyridin-2-yl)amino)isoin-dolin-1-one] |
| < 100 | O=C1NCc2c(-c3cnc4cnccn34)ccc(Nc3ccc(N4CC(O)C4)cn3)c21 [I-315, 7-((5-(3-hydroxyazeti-din-1-yl)pyridin-2-yl)amino)-4-(imidazo[1,2-a]pyrazin-3-yl)isoindolin-1-one] |
| < 100 | CN(C)C(C)(C)[C@H]1CN(c2ccc(Nc3ccc(-c4cnc5cnccn45)c4c3C(=O)NC4)nc2)CCO1 [I-618, (R)-7-((5-(2-(2-(dimethylami-no)propan-2-yl)morpho-lino)pyridin-2-yl)amino)-4-(imidazo[1,2-a]pyrazin-3-yl)isoindolin-1-one] |
| < 100 | Cc1cccn2c(-c3ccc(Nc4ccc(N5CCC(O)(CN6CCN(C)CC6)CC5)cn4)c4c3CNC4=O)cnc12 [I-402, 7-((5-(4-hydroy-4-((4-methylpiperazin-1-yl)methyl)piper-idin-1-yl)pyridin-2-yl)amino)-4-(8-methylimidazo [1,2-a]pyridin-3-yl)isoindolin-1-one] |
| < 100 | CC1(O)CCN(c2ccc(Nc3ccc(-c4cnc5cc(F)ccn45)c4c3C(=O)NC4)nc2)CC1 [I-397, 4-(7-fluoroimidazo [1,2-a]pyridin-3-yl)-7-((5-(4-hydroxy-4-methylpiperidin-1-yl)pyridin-2-yl)amino)isoin-dolin-1-one] |
| < 100 | CN(C)Cc1nc(Nc2ccc(-c3cnc4cc(F)ccn34)c3c2C(=O)NC3)ccc1N1CCC(O)CC1 [I-777, 7-((6-((dimethylamino)-methyl)-5-(4-hydroxypiperidin-1-yl)pyridin-2-yl)amino)-4-(7-fluoroimidazo [1,2-a]pyridin-3-yl)isoindolin-1-one] |
| < 100 | Cn1ccc2c(-c3ccc(Nc4ccc(N5CC6(CC(O)C6)C5)cn4)c4c3CNC4=O)ccnc21 [I-297, 7-((5-(6-hydroxy-2-azaspiro[3,3]heptan-2-yl)pyridin-2-yl)amino)-4-(1-methyl-1H-pyrrolo[2,3-b]pyridin-4-yl)isoindolin-1-one] |
| < 100 | Cn1ccc2c(-c3ncc(Nc4ccc(N5CCC(O)CC5)cn4)c4c3CNC4=O)cccc21 [I-279, 7-((5-(4-hydroxypi-peridin-1-yl)pyridin-2-yl)amino)-4-(1-methyl-1H-indol-4-yl)-2.3-dihydro-1H-pyrrolo[3,4-c]pyridin-1-one] |
| < 100 | CC(C)(N)[C@@H]1CN(c2ccc(Nc3ccc(-c4cnc5cc(F)ccn45)c4c3C(=O)NC4)nc2)CCO1 (single isomer, unassigned) [I-670] |

Source: US11021481B2, “Substituted isoindolin-1-ones and 2,3-dihydro-1h-pyrrolo[3,4-c]pyridin-1-ones as HPK1 antagonists” (Nimbus Saturn, Inc., priority 2019, dated 2021)
